Data: patent EP0410278A1, “Renin inhibiting aminooligohydroxy-derivatives” (HOECHST AKTIENGESELLSCHAFT, priority 1989, dated 1991)

Tested on: Rhesusaffen
Test: In vivo test in furosemide-pretreated, anaesthetised rhesus monkeys: blood pressure, heart rate, plasma renin activity
Conditions: 2 mg/kg i.d. (in 0,1 n Zitronensäure 2 mg/ml); for Änderung PRA [%]: Plasma-Renin-Aktivität
Source text: Renin-Hemmer bewirken an salzverarmten Tieren eine Blutdrucksenkung. Da sich menschliches Renin von dem Renin anderer Spezies unterscheidet, werden zum in-vivo-Test von Renin-Hemmern Primaten, wie zum Beispiel Rhesus-Affen, herangezogen.
Primaten-Renin und Human-Renin sind in ihrer Sequenz weitgehend homolog. Durch i.v. Injektion von Furosemid wird eine endogene Renin-Ausschüttung angeregt. Anschließend werden die Testverbindungen verabreicht und ihre Wirkung auf Blutdruck und Herzfrequenz wird gemessen.
6 Rhesusaffen wurden an 6 aufeinanderfolgenden Tagen mit 10 mg/kg·d Furosemid oral vorbehandelt. Am 7. Tag wurden etwa 30 Minuten vor Versuchsbeginn weitere 10 mg/kg Furosemid i.v. verabreicht. Anschließend wurde die Anästhesie mit 20 mg/kg Ketamin i.m. eingeleitet und mit 40 mg/kg Pentobarbiton i.v. fortgesetzt. Ein Seitenarm der Femoralarterie wurde freipräpariert und zur Blutdruckmessung mittels eines Blutdruck-Wandlers (P 23 ID) kanuliert. Blutproben zur Bestimmung der Plasma-Renin-Aktivität wurden über eine Braunüle in der Saphena-Vene abgenommen.
Die Titelverbindung des Beispiels 2 zeigt folgendes Ergebnis: 2 mg/kg i.d. (in 0,1 n Zitronensäure 2 mg/ml)

CC(C)(C)S(=O)(=O)CC(Cc1ccccc1)C(=O)NC(Cc1c[nH]cn1)C(=O)NC(CC1CCCCC1)C(O)C(O)C(O)C(O)CO [Beispiel 2, (2(S)-Benzyl,3-t-butylsulfonyl)propionyl-His-[(D)-Manno-Pentol]]
Blutdruck-Änderung [%] (t 1 min): -0,72% | Puls-Änderung [%] (t 1 min): -1,16% | Blutdruck-Änderung [%] (t 3 min): -8,21% | Puls-Änderung [%] (t 3 min): -1,61% | Blutdruck-Änderung [%] (t 5 min): -11,53% | Puls-Änderung [%] (t 5 min): -2,42% | Blutdruck-Änderung [%] (t 10 min): -11,82% | Puls-Änderung [%] (t 10 min): -2,51% | Blutdruck-Änderung [%] (t 15 min): -12,68% | Puls-Änderung [%] (t 15 min): -3,49% | Blutdruck-Änderung [%] (t 20 min): -13,48% | Puls-Änderung [%] (t 20 min): -1,97% | Blutdruck-Änderung [%] (t 30 min): -16,43% | Puls-Änderung [%] (t 30 min): -1,61% | Blutdruck-Änderung [%] (t 45 min): -12,82% | Puls-Änderung [%] (t 45 min): +0,09% | Blutdruck-Änderung [%] (t 60 min): -13,98% | Puls-Änderung [%] (t 60 min): -0,09% | Puls-Änderung [%] (t 75 min): +1,16% | Puls-Änderung [%] (t 90 min): +3,04% | Änderung PRA [%] (t 15 min): -20% | Änderung PRA [%] (t 30 min): -62% | Änderung PRA [%] (t 45 min): -53% | Änderung PRA [%] (t 60 min): -58% | Änderung PRA [%] (t 90 min): -51% | Änderung PRA [%] (t 120 min): -47%
